Test results as given in patent US10626081B2, “Farnesoid X receptor agonists and uses thereof” (Metacrine, Inc., priority 2015, dated 2020).

Tests used:
FXR [1] = target: T1, FXR (Homo sapiens, UniProt Q96RI1); assay: In Vitro FXR Assay (PGL3): luciferase reporter in transfected CV-1 cells; format: cell-based; details: CV-1 cells transfected with hFXR, hRXR, PGL3-ECRE*6-luc; 18 h incubation; luminescence
T1 construct: expressed in transfected cells; host or cells: CV-1 cells
T1 sequence (Q96RI1 1-486): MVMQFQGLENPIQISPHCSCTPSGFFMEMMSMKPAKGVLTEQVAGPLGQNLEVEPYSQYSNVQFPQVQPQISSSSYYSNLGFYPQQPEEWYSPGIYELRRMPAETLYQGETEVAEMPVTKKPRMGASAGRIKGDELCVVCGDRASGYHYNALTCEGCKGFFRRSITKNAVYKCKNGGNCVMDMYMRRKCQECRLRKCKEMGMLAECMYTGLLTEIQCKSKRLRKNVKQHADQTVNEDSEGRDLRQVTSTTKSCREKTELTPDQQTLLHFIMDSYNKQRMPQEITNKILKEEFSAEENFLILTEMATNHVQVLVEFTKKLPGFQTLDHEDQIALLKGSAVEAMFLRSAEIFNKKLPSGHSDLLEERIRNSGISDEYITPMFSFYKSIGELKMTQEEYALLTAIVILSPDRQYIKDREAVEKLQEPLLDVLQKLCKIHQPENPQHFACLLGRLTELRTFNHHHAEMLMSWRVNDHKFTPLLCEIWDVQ
T1 sequence (P19793 1-462 partner): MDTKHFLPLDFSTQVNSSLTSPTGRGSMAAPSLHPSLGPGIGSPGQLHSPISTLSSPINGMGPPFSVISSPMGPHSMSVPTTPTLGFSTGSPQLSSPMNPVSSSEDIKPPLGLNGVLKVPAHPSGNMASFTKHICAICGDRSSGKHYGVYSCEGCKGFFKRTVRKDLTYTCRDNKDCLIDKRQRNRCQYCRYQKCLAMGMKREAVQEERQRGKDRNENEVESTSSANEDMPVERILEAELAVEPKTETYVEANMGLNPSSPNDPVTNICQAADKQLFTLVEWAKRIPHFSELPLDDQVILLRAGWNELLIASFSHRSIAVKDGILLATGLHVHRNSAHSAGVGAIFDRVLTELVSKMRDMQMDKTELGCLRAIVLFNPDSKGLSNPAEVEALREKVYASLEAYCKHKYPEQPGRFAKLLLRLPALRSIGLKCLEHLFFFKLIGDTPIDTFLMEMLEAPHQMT
Method: Example B-1: In Vitro FXR Assay (PGL3)
CV-1 cells were seeded at a density of 2,000,000 cells in a T175 flask with DMEM+10% charcoal double-stripped FBS and incubated at 37° C. in a 5% CO2 for 18 h (O/N).
After 18 h of incubation, the medium in the T175 flask was changed with fresh DMEM+10% charcoal super-stripped serum.
To prepare the transfection reaction mixture, the transfection reagent (X-tremeGENE HP from Roche, Cat #06 366 236 001) was added in to a 1.5 mL microcentrifuge tube labelled “A” at a ratio of 1:3 (DNA in transfection reagent in μL). OptiMEM medium (Life Technologies, Cat #31985-062) was added accordingly to provide a total volume of 1 mL. The transfection reaction mixture was then briefly vortexed and incubated at room temperature for 5 minutes.
In a separate 1.5 mL microcentrifuge tube labelled “B”, 100 μL OptiMEM and plasmids XPD90Gal pCMXhFXRfl, pCMXhRXRfl+PGL3-ECRE*6-luc+CMX-YFP in the ratio 2 μg:2 μg:18 μg:3 μg were added. This microcentrifuge tube “B” was then briefly vortexed and incubated at room temperature for 5 minutes.
The total volume in tube labelled “A” was then transferred in to tube labelled “B.” The mixture was then briefly vortexed and the transfection:DNA complex was then incubated for about 15-20 minutes at room temperature.
Following incubation, the transfection reagent/DNA mixture complex was then added to cells in the T175 flask and the cells were incubated at […] (O/N) at 37° C. in 5% CO2.
In a 96 well plate, a half logarithmic serial dilution was prepared. OptiMEM was used as the diluent. Using any of one of the compounds described herein, a compound stock solution of 10 mM was prepared. An initial 1:100 dilution was made into the first well for a final concentration of 100 μM. The final concentrations in the 96-well plate was prepared by using a multichannel pipette to transfer 5 μL of the diluted compound to 384-well plate in quadruplicate.
Cells in T175 flask were trypsinized and cells were resuspended in 40 mL phenol red free DMEM+10% charcoal super-stripped FBS. Typically, one T175 flask was sufficient to seed two 384 well plates. CV-1 cells were seeded at 45 μL cell suspension/well using a multi-channel pipet or a 384 multidrop dispenser. The cells were then incubated for 18 hrs, overnight.
After removing the plates from the incubator, the medium was flicked out of plate and 384 well plate was turned upside down onto paper towel. The remaining medium was gently tapped out. 15 μL lysis buffer was then added to each well using a multichannel pipet or a 384 well multi-drop dispenser. After incubation for 10 minutes at room temperature on shaker, 30 μL Luciferase buffer was added to each well. Luminescence counts were taken immediately using the Perkin Elmer Envision.
The ability of the compounds disclosed herein to […] FXR activity was quantified and the respective EC50 value was determined. Fex=fexaramine.

FXR [2] = target: T1, FXR; assay: In Vitro FXR Assay (TK): TK-ECRE-luc reporter in transfected CV-1 cells; format: cell-based; details: CV-1 cells transfected with hFXR, hRXR, 18 h incubation, luminescence
Method in brief: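 CV-1 cells in charcoal-stripped FBS medium were transiently cotransfected with hFXR, hRXR, TK-ECRE-luc and pCMX-YFP plasmids. After 18 h, compounds serially diluted in DMSO were added for 18 h at 37 °C, 5% CO2, then cells were lysed and luminescence read.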

## COC(=O)/C=C/c1cccc(N(Cc2ccc(-c3cncs3)cc2)C(=O)C2CCCCC2)c1 [compound 69, (E)-Methyl 3-(3-(N-(4-(thiazol-5-yl)benzyl)cyclohexanecarboxamido)phenyl) acrylate]
FXR [1]
  Cmpd/Fex (ratio of the EC50 for the test compound relative to the EC50 of the Fexaramine control): + (‘+’ means Cmpd/Fex > 100)
FXR [2]
  EC50: 1 to 10 µM

## CNc1ccc(-c2ccc(CN(C(=O)C3CCCCC3)c3cccc(/C=C/C(=O)OC)c3)cc2)cc1 [compound 61, (E)-Methyl 3-(3-(N-((4′-(methylamino)-[1,1′-biphenyl]-4-yl)methyl)cyclohexanecarboxamido)phenyl) acrylate]
FXR [1]
  Cmpd/Fex (ratio of the EC50 for the test compound relative to the EC50 of the Fexaramine control): +++ (‘+++’ means Cmpd/Fex < 10)
FXR [2]
  EC50: 1 to 10 µM

## COC(=O)/C=C/c1cccc(N(Cc2ccc(-c3ccc(N4CCCC4)cc3)cc2)C(=O)C2CCCCC2)c1 [compound 48, (E)-Methyl 3-(3-(N-((4′-(pyrrolidin-1-yl)-[1,1′-biphenyl]-4-yl)methyl)cyclohexanecarboxamido)phenyl) acrylate]
FXR [1]
  Cmpd/Fex (ratio of the EC50 for the test compound relative to the EC50 of the Fexaramine control): +++ (‘+++’ means Cmpd/Fex < 10)
FXR [2]
  EC50: 1 to 10 µM

## COC(=O)/C=C/c1ccc(C)c(N(Cc2ccc(-c3ccc(N(C)C)cc3)cc2)C(=O)C2CCCCC2)c1 [compound 42, (E)-Methyl 3-(3-(N-((4′-(dimethylamino)-[1,1′-biphenyl]-4-yl)methyl)cyclohexanecarboxamido)-4-methylphenyl)acrylate]
FXR [1]
  Cmpd/Fex (ratio of the EC50 for the test compound relative to the EC50 of the Fexaramine control): +++ (‘+++’ means Cmpd/Fex < 10)
FXR [2]
  EC50: 1 to 10 µM

## COC(=O)/C=C/c1cccc(N(Cc2ccc(-c3ccc(N(C)C(=O)OC(C)(C)C)cc3)cc2)C(=O)C2CCCCC2)c1 [compound 60, (E)-Methyl 3-(3-(N-((4′-((tert-butoxycarbonyl)(methyl)amino)-[1,1′-biphenyl]-4-yl)methyl)cyclohexanecarboxamido)phenyl) acrylate]
FXR [1]
  Cmpd/Fex (ratio of the EC50 for the test compound relative to the EC50 of the Fexaramine control): + (‘+’ means Cmpd/Fex > 100)
FXR [2]
  EC50: > 10 µM

## COC(=O)/C=C/c1cccc(N(Cc2ccc(N3CCCCC3)cc2)C(=O)C2CCCCC2)c1 [compound 78, (E)-Methyl 3-(3-(N-(4-(piperidin-1-yl)benzyl)cyclohexanecarboxamido)phenyl) acrylate]
FXR [1]
  Cmpd/Fex (ratio of the EC50 for the test compound relative to the EC50 of the Fexaramine control): ++ (‘++’ means Cmpd/Fex > 10 & < 100)
FXR [2]
  EC50: 1 to 10 µM

## COC(=O)/C=C/c1cccc(N(Cc2ccc(-c3ccc(C#N)cc3)cc2)C(=O)C2CCCCC2)c1 [compound 23, (E)-Methyl 3-(3-(N-((4′-cyano-[1,1′-biphenyl]-4-yl)methyl)cyclohexanecarboxamido)phenyl)acrylate]
FXR [1]
  Cmpd/Fex (ratio of the EC50 for the test compound relative to the EC50 of the Fexaramine control): +++ (‘+++’ means Cmpd/Fex < 10)
FXR [2]
  EC50: 1 to 10 µM

## COC(=O)/C=C/c1cccc(N(Cc2ccc(-c3cccc(C(F)(F)F)c3)cc2)C(=O)C2CCCCC2)c1 [compound 35, (E)-Methyl 3-(3-(N-((3′-(trifluoromethyl)-[1,1′-biphenyl]-4-yl)methyl)cyclohexanecarboxamido)phenyl)acrylate]
FXR [1]
  Cmpd/Fex (ratio of the EC50 for the test compound relative to the EC50 of the Fexaramine control): ++ (‘++’ means Cmpd/Fex > 10 & < 100)
FXR [2]
  EC50: 1 to 10 µM

## COC(=O)/C=C/c1cccc(N(Cc2ccc(-c3ccc4c(c3)ncn4C)cc2)C(=O)C2CCCCC2)c1 [compound 74, (E)-Methyl 3-(3-(N-(4-(1-methyl-1H-benzo[d]imidazol-5-yl)benzyl)cyclohexanecarboxamido)phenyl) acrylate]
FXR [1]
  Cmpd/Fex (ratio of the EC50 for the test compound relative to the EC50 of the Fexaramine control): + (‘+’ means Cmpd/Fex > 100)
FXR [2]
  EC50: 1 to 10 µM

## COC(=O)/C=C/c1cccc(N(Cc2ccc(-c3ccc(N(C)C)cc3)cc2)C(=O)[C@H]2CC[C@H](O)CC2)c1 [compound 19, trans-(E)-Methyl 3-(3-(N-((4′-(dimethylamino)-[1,1′-biphenyl]-4-yl)methyl)-4-hydroxycyclohexanecarboxamido)phenyl)acrylate]
FXR [1]
  Cmpd/Fex (ratio of the EC50 for the test compound relative to the EC50 of the Fexaramine control): +++ (‘+++’ means Cmpd/Fex < 10)
FXR [2]
  EC50: ≤ 1 µM

## COC(=O)/C=C/c1cccc(N(Cc2ccc(-c3cccnc3)cc2)C(=O)C2CCCCC2)c1 [compound 29, (E)-Methyl 3-(3-(N-(4-(pyridin-3-yl)benzyl)cyclohexanecarboxamido)phenyl) acrylate]
FXR [1]
  Cmpd/Fex (ratio of the EC50 for the test compound relative to the EC50 of the Fexaramine control): ++ (‘++’ means Cmpd/Fex > 10 & < 100)
FXR [2]
  EC50: 1 to 10 µM

## COC(=O)/C=C/c1cccc(N(Cc2ccc(-c3ccccc3C#N)cc2)C(=O)C2CCCCC2)c1 [compound 66, (E)-Methyl 3-(3-(N-((2′-cyano-[1,1′-biphenyl]-4-yl)methyl)cyclohexanecarboxamido)phenyl) acrylate]
FXR [1]
  Cmpd/Fex (ratio of the EC50 for the test compound relative to the EC50 of the Fexaramine control): + (‘+’ means Cmpd/Fex > 100)
FXR [2]
  EC50: 1 to 10 µM

## COC(=O)/C=C/c1cccc(N(Cc2ccc(-c3ccc(C(C)C)cc3)cc2)C(=O)C2CCCCC2)c1 [compound 70, (E)-Methyl 3-(3-(N-((4′-isopropyl-[1,1′-biphenyl]-4-yl)methyl)cyclohexanecarboxamido)phenyl) acrylate]
FXR [1]
  Cmpd/Fex (ratio of the EC50 for the test compound relative to the EC50 of the Fexaramine control): +++ (‘+++’ means Cmpd/Fex < 10)
FXR [2]
  EC50: 1 to 10 µM

## COC(=O)/C=C/c1cccc(N(Cc2ccc(-c3ccccc3F)cc2)C(=O)C2CCCCC2)c1 [compound 27, (E)-Methyl 3-(3-(N-((2′-fluoro-[1,1′-biphenyl]-4-yl)methyl)cyclohexanecarboxamido)phenyl) acrylate]
FXR [1]
  Cmpd/Fex (ratio of the EC50 for the test compound relative to the EC50 of the Fexaramine control): +++ (‘+++’ means Cmpd/Fex < 10)
FXR [2]
  EC50: 1 to 10 µM

## COC(=O)CCc1cccc(N(Cc2ccc(-c3ccc(N(C)C)cc3)cc2)C(=O)C2CCCCC2)c1C [compound 92, Methyl 3-(3-(N-((4′-(dimethylamino)-[1,1′-biphenyl]-4-yl)methyl)cyclohexanecarboxamido)-2-methylphenyl)propanoate]
FXR [1]
  Cmpd/Fex (ratio of the EC50 for the test compound relative to the EC50 of the Fexaramine control): + (‘+’ means Cmpd/Fex > 100)
FXR [2]
  EC50: 1 to 10 µM

## COC(=O)/C=C/c1cccc(N(Cc2ccc(-c3ccc(OC(C)C)cc3)cc2)C(=O)C2CCCCC2)c1 [compound 32, (E)-Methyl 3-(3-(N-((4′-isopropoxy-[1,1′-biphenyl]-4-yl)methyl)cyclohexanecarboxamido)phenyl)acrylate]
FXR [1]
  Cmpd/Fex (ratio of the EC50 for the test compound relative to the EC50 of the Fexaramine control): ++ (‘++’ means Cmpd/Fex > 10 & < 100)
FXR [2]
  EC50: 1 to 10 µM
